Laboratory results: patent US20180339015A1, “Therapeutic Nanoparticles Comprising An Antibiotic and Methods of Making and Using Same” (priority 2015, published 2018)

Legend:
[1] = system: Salmonella spp; conditions: cited from earlier work
[2] = system: Enterobacter spp; conditions: cited from earlier work
[3] = system: P. aeruginosa; conditions: cited from earlier work
[4] = system: Citrobacter spp; conditions: cited from earlier work
[5] = system: Shigella spp; conditions: cited from earlier work
[6] = system: E. coli; conditions: cited from earlier work
[7] = system: Acinetobacter species; conditions: cited from earlier work
[8] = system: K. pneumoniae; conditions: cited from earlier work
[9] = mice, intravenous injection
[10] = system: Klebsiella; experiment: Klebsiella thigh infection model, efficacy and biodistribution; assay type: in vivo
Procedure: CS-NPs were further tested for their efficacy and biodistribution in a Klebsiella thigh infection model. […] In summary. CS-NPs have the same efficacy as free CS in a thigh infection model after 24 hours.

[11] = system: K. pneumonia; experiment: K. pneumonia lung infection model; assay type: in vivo; conditions: single 40 mg/kg dose s.c., n=6
Procedure: CS-NPs were tested for their efficacy in a K. pneumonia lung infection model. Results are depicted in FIG. 11.

## colistin
[1]
  MIC90: ≤ 1 µg/mL
[2]
  MIC50: ≤ 1 µg/mL
[3]
  MIC90: ≤ 4 µg/mL
[4]
  MIC90: ≤ 1 µg/mL
[5]
  MIC90: ≤ 0.5 µg/mL
[6]
  MIC90: ≤ 2 µg/mL
[7]
  MIC90: ≤ 2 µg/mL
[8]
  MIC90: ≤ 1 µg/mL

## colistin sulphate [CS]
[9]
  LD50: 6 mg/kg
  MTD: 2 mg/kg
[10]; thigh infection model
  bacteremia: prevented bacteremia
[10]; thigh, after 24 hours
  bacteria counts in site of infection: significantly decreased bacteria counts
[11]
  animals sterilized: 50%
